# According to paper PMC7452880 (Clinical Drug Investigation, 2020):
# Like-named read-outs stand apart in the source and are kept apart here.
# Assays:
# [1] = cited from earlier work
# [2] = humans, over 24 h; cited from earlier work
# Safety assessments = format: in vivo, human; settings: per treatment period; for incidences of changes in diastolic blood pressure / incidences of changes in systolic blood pressure: potentially clinically relevant changes from baseline; for Patients who experienced AEs considered to be related to the study drug: treatment-emergent
# [3] = format: in vivo, human
# [4] = human plasma; cited from earlier work
# OAT3 = target: T1, OAT3 (Homo sapiens, UniProt Q8TCC7); assay: OAT3-mediated inhibition assay in S2 cells; format: in vitro ADME
# T1 sequence (Q8TCC7 1-542): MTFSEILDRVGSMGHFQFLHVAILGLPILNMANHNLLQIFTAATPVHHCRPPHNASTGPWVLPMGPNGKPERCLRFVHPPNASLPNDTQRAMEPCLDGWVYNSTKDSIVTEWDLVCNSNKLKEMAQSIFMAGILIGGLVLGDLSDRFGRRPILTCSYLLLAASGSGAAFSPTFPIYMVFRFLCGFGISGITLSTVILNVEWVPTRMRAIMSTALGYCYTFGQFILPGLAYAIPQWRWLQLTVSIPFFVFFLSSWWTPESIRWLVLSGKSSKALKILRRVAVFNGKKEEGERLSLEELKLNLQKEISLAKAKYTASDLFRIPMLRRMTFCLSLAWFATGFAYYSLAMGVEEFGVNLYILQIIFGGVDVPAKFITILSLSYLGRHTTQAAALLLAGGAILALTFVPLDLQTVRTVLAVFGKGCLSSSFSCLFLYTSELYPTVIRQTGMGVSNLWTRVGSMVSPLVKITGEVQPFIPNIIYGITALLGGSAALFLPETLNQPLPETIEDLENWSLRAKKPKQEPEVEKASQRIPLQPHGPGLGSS
# tyrosine kinase 2 = settings: cited from earlier work
# OAT1 = target: T2, OAT1 (Homo sapiens, UniProt Q4U2R8); assay: OAT1-mediated inhibition assay in S2 cells; format: in vitro ADME; settings: OAT1-expressing S2 cells
# T2 sequence (Q4U2R8 1-563): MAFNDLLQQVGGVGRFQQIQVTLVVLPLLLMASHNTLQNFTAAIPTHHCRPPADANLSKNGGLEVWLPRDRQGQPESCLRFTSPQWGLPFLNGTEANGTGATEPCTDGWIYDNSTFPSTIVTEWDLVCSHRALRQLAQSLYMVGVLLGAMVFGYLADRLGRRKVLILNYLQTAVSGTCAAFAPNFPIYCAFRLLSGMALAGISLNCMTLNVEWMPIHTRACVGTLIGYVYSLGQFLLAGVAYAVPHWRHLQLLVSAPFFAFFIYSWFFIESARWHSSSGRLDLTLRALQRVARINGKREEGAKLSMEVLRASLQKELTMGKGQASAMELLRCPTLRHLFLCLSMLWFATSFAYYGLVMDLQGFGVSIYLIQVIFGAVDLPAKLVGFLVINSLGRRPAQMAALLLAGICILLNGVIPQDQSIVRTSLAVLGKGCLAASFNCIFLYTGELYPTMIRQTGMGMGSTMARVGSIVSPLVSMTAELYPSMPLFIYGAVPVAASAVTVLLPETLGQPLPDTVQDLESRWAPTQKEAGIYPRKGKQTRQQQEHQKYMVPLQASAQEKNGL
# human BCRP = target: T3, human BCRP (Homo sapiens, UniProt Q9UNQ0); assay: BCRP-mediated vesicular transport assay; format: in vitro ADME
# T3 sequence (Q9UNQ0 1-655): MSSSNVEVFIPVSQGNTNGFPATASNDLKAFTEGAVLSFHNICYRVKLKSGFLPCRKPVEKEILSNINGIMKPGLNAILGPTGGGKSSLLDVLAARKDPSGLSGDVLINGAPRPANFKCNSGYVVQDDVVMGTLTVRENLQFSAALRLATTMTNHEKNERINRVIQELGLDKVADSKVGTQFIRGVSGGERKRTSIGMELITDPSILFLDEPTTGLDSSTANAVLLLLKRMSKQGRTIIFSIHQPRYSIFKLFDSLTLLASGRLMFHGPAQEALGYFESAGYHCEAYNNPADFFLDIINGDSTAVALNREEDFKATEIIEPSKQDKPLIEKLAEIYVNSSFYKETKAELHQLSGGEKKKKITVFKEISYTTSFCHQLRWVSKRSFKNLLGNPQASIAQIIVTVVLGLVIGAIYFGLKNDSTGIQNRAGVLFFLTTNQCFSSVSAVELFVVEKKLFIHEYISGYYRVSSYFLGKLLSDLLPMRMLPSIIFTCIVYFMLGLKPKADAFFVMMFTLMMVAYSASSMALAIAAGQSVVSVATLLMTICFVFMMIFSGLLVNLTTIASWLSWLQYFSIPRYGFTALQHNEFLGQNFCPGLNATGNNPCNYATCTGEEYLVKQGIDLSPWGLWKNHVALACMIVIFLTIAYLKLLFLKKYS
# [5] = healthy male subjects; cited from earlier work
# JAK1 = settings: cited from earlier work
# JAK3 = settings: cited from earlier work
# human MRP4 = target: T4, human MRP4 (Homo sapiens, UniProt O15439); assay: MRP4-mediated vesicular transport assay; format: in vitro ADME; settings: membrane vesicles, peficitinib up to 100 μmol/L
# T4 sequence (O15439 1-1325): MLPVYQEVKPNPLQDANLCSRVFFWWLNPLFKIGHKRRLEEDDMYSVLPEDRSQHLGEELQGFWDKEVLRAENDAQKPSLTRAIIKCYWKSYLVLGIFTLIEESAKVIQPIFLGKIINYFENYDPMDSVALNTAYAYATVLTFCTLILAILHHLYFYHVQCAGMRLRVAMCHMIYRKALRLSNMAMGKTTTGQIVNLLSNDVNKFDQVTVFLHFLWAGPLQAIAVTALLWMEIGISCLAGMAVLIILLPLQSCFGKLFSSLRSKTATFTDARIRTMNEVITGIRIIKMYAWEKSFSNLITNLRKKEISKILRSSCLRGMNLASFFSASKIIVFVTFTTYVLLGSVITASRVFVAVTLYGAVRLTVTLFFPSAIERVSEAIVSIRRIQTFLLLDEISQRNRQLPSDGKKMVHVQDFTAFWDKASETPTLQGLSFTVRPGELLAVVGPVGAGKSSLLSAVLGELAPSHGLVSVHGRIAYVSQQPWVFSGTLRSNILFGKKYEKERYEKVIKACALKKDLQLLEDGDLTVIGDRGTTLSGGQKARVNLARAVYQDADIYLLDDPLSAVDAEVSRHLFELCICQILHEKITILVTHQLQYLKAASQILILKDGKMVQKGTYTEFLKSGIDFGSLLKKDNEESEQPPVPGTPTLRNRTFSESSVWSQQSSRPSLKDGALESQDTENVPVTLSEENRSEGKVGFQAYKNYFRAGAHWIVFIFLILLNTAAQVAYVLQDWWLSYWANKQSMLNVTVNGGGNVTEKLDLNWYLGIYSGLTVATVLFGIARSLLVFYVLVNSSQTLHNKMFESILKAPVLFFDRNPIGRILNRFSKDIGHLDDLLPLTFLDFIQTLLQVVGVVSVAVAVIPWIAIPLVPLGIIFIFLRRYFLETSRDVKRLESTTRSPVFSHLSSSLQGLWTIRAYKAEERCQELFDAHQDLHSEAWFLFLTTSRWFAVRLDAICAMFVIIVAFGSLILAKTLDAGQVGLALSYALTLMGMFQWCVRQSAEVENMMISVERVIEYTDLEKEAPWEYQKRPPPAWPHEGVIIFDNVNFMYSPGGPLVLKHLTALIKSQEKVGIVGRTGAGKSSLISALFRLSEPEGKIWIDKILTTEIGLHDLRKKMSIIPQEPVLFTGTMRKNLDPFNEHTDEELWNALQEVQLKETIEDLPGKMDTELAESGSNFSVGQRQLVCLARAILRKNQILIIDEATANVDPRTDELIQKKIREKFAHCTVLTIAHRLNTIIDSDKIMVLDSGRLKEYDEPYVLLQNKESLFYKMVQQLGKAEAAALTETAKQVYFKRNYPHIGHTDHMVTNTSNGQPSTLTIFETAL
# JAK2 = settings: cited from earlier work
compound,measurement,setting,value
"CN(Cc1cnc2nc(N)nc(N)c2n1)c1ccc(C(=O)N[C@@H](CCC(=O)O)C(=O)O)cc1 [Methotrexate, reference compound]",effect on the pharmacokinetics of tofacitinib,[1],did not significantly affect the pharmacokinetics of tofacitinib
same,dose excreted unchanged in urine,[2],over 80%
same,incidences of either high or low pulse rates,Safety assessments,2
same,incidences of changes in diastolic blood pressure,Safety assessments,7
same,incidences of changes in systolic blood pressure,Safety assessments,4
same,Nausea,Safety assessments; treatment-emergent AE,2 (13.3) n (%)
same,Patients who experienced AEs considered to be related to the study drug,Safety assessments,2 (13.3) n (%)
NC(=O)c1cnc2[nH]ccc2c1N[C@@H]1[C@@H]2CC3C[C@H]1C[C@@](O)(C3)C2 [Peficitinib],day on which plasma concentrations reached steady state,"[3]; 100 mg BID from Day 3, contrast test of Ctrough",[…]
same,decrease of peficitinib Cmax with methotrexate coadministration,"[3]; Day 8 vs Day 7, from geometric mean ratio",8%
same,Cmax,"[3]; human, plasma, oral, 100 mg, individual maximum plasma Cmax, after 100 mg BID",405 ng/mL
same,bound to protein,[4],76–78%
same,IC50,OAT3,5010 nM
same,IC50,tyrosine kinase 2,4.8 nM
same,inhibitory effect on OAT1,OAT1,no significant inhibitory effects
same,IC50,human BCRP,13500 nM
same,dose excreted unchanged in urine,[5],14%
same,oral dose excreted in feces,[5],approximately 57%
same,oral dose excreted in urine,[5],Approximately 37%
same,oral dose undergoing metabolism,[5],over 65%
same,IC50,JAK1,3.9 nM
same,incidences of either high or low pulse rates,Safety assessments,4
same,incidences of changes in diastolic blood pressure,Safety assessments,9
same,incidences of changes in systolic blood pressure,Safety assessments,3
same,Flatulence,Safety assessments; treatment-emergent AE,4 (28.6) n (%)
same,Patients who experienced AEs considered to be related to the study drug,Safety assessments,4 (28.6) n (%)
same,inhibitory effect on MRP4,human MRP4,no significant inhibitory effects
same,IC50,JAK2,5 nM
